Source: patent publication US20210361575A1, “LIPID PRODRUGS FOR USE IN DRUG DELIVERY” (NEW MEXICO TECH UNIVERSITY RESEARCH PARK CORPORATION, priority 2018, published 2021)
Read-outs that look alike come from different tables or passages of the source.

Tests used:
[1] = Differential scanning calorimetry of loaded liposomes; format: physicochemical; settings: increasing concentration, prodrugs 0 to 37 mol %, parents 0 to 31 mol %; compared to empty liposomes; not extruded
Experimental: Prodrug-loaded liposome (PLL) samples were prepared using 20 mg of lipid per 1 mL of […] for each compound with increasing prodrug concentrations without extrusion. Deionized water was used as the calibration standard. 10 μL from each liposome suspension was transferred and sealed in an aluminum DSC pan. DSC measurements were taken at room temperature, and the sample was then heated from 15° C. to 55° C. at 5° C./min.
DSC is a thermal analytical technique useful for designing lipid drug delivery systems, like liposomes, by determining the compatibility of mixed molecules and compositions with the liposome bilayer. The thermotropic behavior of the liposomes at varying prodrug concentrations is measured to determine whether insertion of the molecules modifies the phase transition temperature. The pre-phase transition was masked by PEG-2000. […] As the concentration was increased, the phase transition returned to the phase transition of empty liposomes. […] All liposome suspensions used for DSC analysis were prepared in deionized water instead of sodium buffer to prevent undesired interactions. The samples were not extruded.

HeLa cells [2] = experiment: MTT cytotoxicity of prodrug-loaded liposomes and parent compounds, HeLa; format: cell-based, Human; settings: 48 hours, free parent compounds or prodrug-incorporated liposomes (20 mol %), read-out: cell viability (MTT), potency
MCF-7 cells = experiment: MTT cytotoxicity of prodrug-loaded liposomes and parent compounds, MCF-7; format: cell-based, Human; settings: MCF7, 48 hours, free parent compounds or prodrug-incorporated liposomes (20 mol %), read-out: cell viability (MTT), potency
MCF10A cells = experiment: MTT cytotoxicity of prodrug-loaded liposomes and parent compounds, MCF10A; format: cell-based; settings: 48 hours, free parent compounds or prodrug-incorporated liposomes (20 mol %), read-out: cell viability (MTT), potency
[3] = Liposomal particle size distribution and stability (DLS); format: physicochemical; set-up: liposome diameter (DLS), Pre / liposome diameter (DLS), Post: unit not given beside the values; settings: for PDI, Post / liposome diameter (DLS), Post: post-extrusion; for PDI, Pre / liposome diameter (DLS), Pre: pre-extrusion
Excerpt: Liposomal size distribution was characterized via dynamic light scattering (DLS). Measurements were taken with disposable polystyrene sizing cuvettes containing the liposome suspensions. Reported DLS measurements are averages of 3 individually prepared liposome samples.
The size distribution of the parent compounds and prodrug loaded liposomes were monitored over time using dynamic light scattering (DLS).
The size distribution of 2T-T liposomes were characterized via DLS measurement both pre- and post-extrusion. The standard deviations of liposome diameter were lower post extrusion. […] The size distributions of 2T-T liposomes at loaded with various concentrations of 2T-T can be seen in TABLE 2, and FIGS. 10-11. […]

[4] = 2T-T incorporation in liposomes (UV-vis, pre- and post-extrusion); format: physicochemical; settings: 2T-T liposomes; for Actual Drug Incorporation - Post: post-extrusion; for Actual Drug Incorporation - Pre: pre-extrusion
Experimental: 2T-T liposomes were produced with increasing concentrations of 2T-T, and passed through an extruder to remove any unincorporated 2T-T from the liposome solution. Liposome solutions were analyzed both pre- and post-extrusion using UV-vis spectroscopy with a scanning range of 200 nm-500 nm, 2 nm bandwidth, […], 0.5 nm data interval, and 100 nm/min scan speed. […] Incorporation limits were analyzed up to 70 mol % (147 uM).

[5] = 2T-P and 2T-N incorporation efficiency in liposomes (UV-Vis); format: physicochemical; settings: parent compound in liposomes
Experimental: Parent compound and prodrug concentrations in liposomes were determined using UV-Vis spectrophotometry; (2T-P: 292 nm; 2T-N: 285 nm). PLL were prepared at varying concentrations between 0 mol % to 50 mol %. The lipid amounts remained equivalent for samples under 50 mol %. Each sample was extruded through a 200 nm pore membrane for a total of 11 passes. Prior and post extrusion liposomes were ruptured by dissolution in DMSO (liposome suspension/DMSO, 1:9, v/v). Samples were analyzed in a quartz cuvette. The following parameters were used: scan speed: 120 nm/min; bandwidth: 2 nm; integration time: 0.15 sec; data interval: 0.30 nm; start wavelength: 500 nm; end wavelength: 190 nm.
N and P (SCHEME 1) are hydrophobic compounds that have been altered to contain an amphiphilic tail (2T-P and 2T-N), altering their incorporation within liposomes, which can be characterized using UV-Vis. This technique measures the decreasing transmittance through a sample surface. The absorption of the liposomes at varying concentrations (after removal of unincorporated material) can be used to calculate how much of a drug has been incorporated into liposomes.

HeLa cells [6] = experiment: MTT cytotoxicity of 2T-T and 2T-C prodrug-loaded liposomes; format: cell-based; settings: Homo sapiens
Experimental: To assess the cytotoxicity of 2T-T prodrug-loaded liposomes, HeLa cells were exposed to different concentrations of topotecan or 2T-T loaded liposomes for 72 hours. After the 72 hour incubation period, cell viability was assessed via an MTT assay.
To assess the cytotoxicity of 2T-C prodrug-loaded liposomes, HeLa cells were exposed to different concentrations of cytarabine or 2T-C(NH2 attachment) loaded liposomes for 48 hours. After the 48 hour incubation period, cell viability was assessed via a MTT assay.

## CCCCCCCCCCCCCCCC(=O)OCC(COP(=O)([O-])OCCNC(=O)CCCC(=O)O[C@@H]1c2cc3c(cc2[C@H](c2cc(OC)c(OC)c(OC)c2)[C@@H]2C(=O)OC[C@H]21)OCO3)OC(=O)CCCCCCCCCCCCCCC.[Na+] (stereo partly drawn) [2T-P, Sodium 2,3-bis (palmitoyloxy) propyl (2-(5-oxo-5-(((5S,5aS,8aS,9S)-8-oxo-9-(3,4,5-trimethoxyphenyl)-5,5a,6,8,8a,9-hexahydrofuro[3′,4′:6,7]naphtha[2,3-d][1,3]dioxol-5-yl)oxy)pentanamido)ethyl)phosphate]
[1]
  phase transition temperature behaviour (DSC thermograms): shallow decreasing phase transition temperatures
HeLa cells [2]
  IC50: 1370 ± 44 nM
MCF-7 cells
  IC50: 2560 ± 126 nM
MCF10A cells
  IC50: 1540 ± 130 nM

## CCCCCCCCCCCCCCCC(=O)OCC(COP(=O)([O-])OCCNC(=O)CCCC(=O)Oc1ccc2nc3c(cc2c1CN(C)C)Cn1c-3cc2c(c1=O)COC(=O)[C@@]2(O)CC)OC(=O)CCCCCCCCCCCCCCC.[Na+] (some centres unmarked) [2T-T]
[3]; 2T-T 10 mol %
  PDI, Post: 0.3 ± 0
  liposome diameter (DLS), Post: 130 ± 7
  PDI, Pre: 0.3 ± 0
  liposome diameter (DLS), Pre: 102 ± 19
[3]; 2T-T 20 mol %
  PDI, Post: 0.3 ± 0
  liposome diameter (DLS), Post: 129 ± 9
  PDI, Pre: 0.3 ± 0.1
  liposome diameter (DLS), Pre: 121 ± 16
[3]; 2T-T 30 mol %
  PDI, Post: 0.3 ± 0
  liposome diameter (DLS), Post: 118 ± 25
  PDI, Pre: 0.3 ± 0
  liposome diameter (DLS), Pre: 98 ± 28
[3]; 2T-T 40 mol %
  PDI, Post: 0.3 ± 0
  liposome diameter (DLS), Post: 123 ± 10
  PDI, Pre: 0.3 ± 0
  liposome diameter (DLS), Pre: 114 ± 24
[3]; 2T-T 50* mol %
  PDI, Post: 0.3
  liposome diameter (DLS), Post: 122.4
  PDI, Pre: 0.3
  liposome diameter (DLS), Pre: 122.4
[3]; 2T-T 60* mol %
  PDI, Post: 0.3
  liposome diameter (DLS), Post: 88.76
  PDI, Pre: 0.5
  liposome diameter (DLS), Pre: 182.9
[3]; 2T-T 70* mol %
  PDI, Post: 0.3
  liposome diameter (DLS), Post: 75.43
  PDI, Pre: 0.4
  liposome diameter (DLS), Pre: 172.1
[4]; predicted 10 mol % (28.2 uM)
  Actual Drug Incorporation - Post: 22.1 ± 7.9 µM
  Actual Drug Incorporation - Pre: 25.3 ± 6.6 µM
[4]; predicted 20 mol % (53.4 uM)
  Actual Drug Incorporation - Post: 42.8 ± 4.8 µM
  Actual Drug Incorporation - Pre: 46.8 ± 4.8 µM
[4]; predicted 30 mol % (76.0 uM)
  Actual Drug Incorporation - Post: 66.2 ± 4.9 µM
  Actual Drug Incorporation - Pre: 71.5 ± 5.1 µM
[4]; predicted 40 mol % (96.5 uM)
  Actual Drug Incorporation - Post: 77.9 ± 12.3 µM
  Actual Drug Incorporation - Pre: 82.6 ± 13.1 µM
[4]; predicted 50* mol % (115.1 uM)
  Actual Drug Incorporation - Post: 116.2 µM
  Actual Drug Incorporation - Pre: 113.4 µM
[4]; predicted 60* mol % (132.0 uM)
  Actual Drug Incorporation - Post: 126.2 µM
  Actual Drug Incorporation - Pre: 125.4 µM
[4]; predicted 70* mol % (147.6 uM)
  Actual Drug Incorporation - Post: 133.7 µM
  Actual Drug Incorporation - Pre: 133.0 µM

## O=C1OCC2=C1C(c1cc(Br)cc(Br)c1)c1ccc3ccc(O)cc3c1N2 (centres unmarked) [N, 7-(3,5-Dibromophenyl)-2-hydroxy-7,11-dihydrobenzo[h]-furo[3,4-b]quinolin-8(10H)-one]
[5]
  maximum measured loading: ~1.1 mol %
HeLa cells [2]; Homo sapiens
  IC50: 5 ± 1 nM
MCF-7 cells; Homo sapiens
  IC50: 3 nM
MCF10A cells; Homo sapiens, MCF-10A
  IC50: 5 nM

## COc1cc([C@@H]2c3cc4c(cc3[C@H](O)[C@H]3COC(=O)[C@H]23)OCO4)cc(OC)c1OC [P, podophyllotoxin]
[5]
  maximum measured loading: ~11 mol %
HeLa cells [2]; Homo sapiens
  IC50: 9 ± 1 nM
MCF-7 cells; Homo sapiens
  IC50: 9 ± 4 nM
MCF10A cells; Homo sapiens, MCF-10A
  IC50: 14 ± 4 nM

## Nc1ccn([C@@H]2O[C@H](CO)[C@@H](O)[C@@H]2O)c(=O)n1 [cytarabine]
HeLa cells [6]; 48 hours
  IC50: 4450 ± 6290 nM

## CC[C@@]1(O)C(=O)OCc2c1cc1n(c2=O)Cc2cc3c(CN(C)C)c(O)ccc3nc2-1 [topotecan]
HeLa cells [6]; 72 hours
  IC50: 51 ± 1 nM
